The numbers were not newly measured in patent US20150051202A1, “TRIAZOLOPYRAZINE DERIVATIVES” (Merck Patent GmbH, priority 2012, published 2015), which cites them from elsewhere.

Structures are written as SMILES.

Series [1] deals with tumors over-expressing IDO. Conditions: several tumor models, monotherapy; cited from earlier work.
In series [2] the test system is murine model of RA. Conditions: cited from earlier work.
For series [3], the system named is RA. To be noted: RA Phase II studies in humans; cited from earlier work.
The subject of series [4] is 3 LL lung carcinoma. Conditions: mice; Rodriguez 2004; cited from earlier work.

On to `Cn1cc(C[C@H](N)C(=O)O)c2ccccc21` [Compound 1MT, 1 methyl-tryptophan], for which, in series [1], the tumor regression result is given as “unable to elicit tumor regression”.
For `COc1cc(Nc2ncc(F)c(Nc3ccc4c(n3)NC(=O)C(C)(C)O4)n2)cc(OC)c1OC` [Compound R406], in series [2], the bone erosion result was “significantly reduced”, the clinical scores entry was “significant improvement” and the serum cytokine concentrations entry is “significantly reduced”. Also, in series [3], the “efficacy (ACR scores)” value is “efficacy (ACR scores improvement)” and the tolerability entry is “good tolerability”.
`N=C(NO)NCC[C@H](N)C(=O)O` [N-hydroxy-nor-L-Arg]: the “growth of s.c. 3 LL lung carcinoma” value in series [4] was “blocks growth”.
